In patent US20260265239A1, “CRYSTAL FORM OF 2,6-PIPERIDINEDIONE COMPOUND, AND PREPARATION METHOD THEREFOR AND USE THEREOF” (ZHANGZHOU PIEN TZE HUANG PHARMACEUTICAL CO., LTD., priority 2023, published 2026):
Where a name gives a salt, the structure may show the parent alone.

Assays:
[1] = test system: human diffuse large B-cell lymphoma TMD-8 cells; experiment: BALB/c nude mouse subcutaneous xenograft tumor model of human diffuse large B-cell lymphoma TMD-8 cells; format: in vivo, BALB/c nude mice; conditions: for Tumor Volume (Day 0) / Tumor Volume (Day 22): mean ± SEM
Procedure: The antitumor effect of the test compound was evaluated using a BALB/c nude mouse subcutaneous xenograft tumor model of human diffuse large B-cell lymphoma TMD-8 cells.
• 1. Experimental animals: BALB/c nude mice, female, 6 to 8 weeks old. Vital River Laboratory Animal Technology Co., Ltd. • 2. Cell line: Human diffuse large B-cell lymphoma TMD-8 cells (purchased from Shanghai Huzhen Industrial Co., Ltd.).
Cell culture: Routine cell culture was conducted in RPMI-1640 medium containing 10% fetal bovine serum under 5% CO2 at 37° C. Cells were passaged based on cell growth conditions at a passage ratio of 1:3 to 1:4.
Tumor cell inoculation and grouping: TMD-8 cells in the logarithmic growth phase were harvested, counted, and resuspended in a mixture of 50% serum-free RPMI-1640 medium and 50% Matrigel. The cell concentration was adjusted to 4.0×10^7 cells/mL. The cell suspension was placed in an ice box, aspirated using a 1-mL syringe, and injected subcutaneously into the right forelimb axilla of nude mice at 200 μL per animal (0.8×10^7 cells/mouse) to establish the TMD-8 xenograft tumor model. Administration was started when the average tumor volume reached approximately 160 mm^3. The day of grouping was designated as Day 1 (D1) of the experiment, and administration was started based on animal body weight.
The pharmacodynamic experiment was conducted with a 7-day administration cycle, where the test compound was administered once daily intragastrically at 24-hour intervals, for a total of three cycles. During the experiment, animal body weight and tumor size were measured twice a week, and clinical symptoms were observed and recorded daily.
The test compound was administered at doses of 10 mg/kg, 30 mg/kg, and 100 mg/kg, with the vehicle being 10% DMSO/10% Solutol HS15/80% water. Tumor volume (TV) was calculated using the formula: ½×a×b^2, where a and b represent the measured length and width of the tumor, respectively. The tumor growth inhibition rate (TGI, %) was calculated using the formula: TGI (%)=[1−(average tumor volume at the end of administration in a treatment group−average tumor volume at the beginning of administration in this treatment group)/(average tumor volume at the end of treatment in the vehicle control group−average tumor volume at the beginning of treatment in the vehicle control group)]×100%. The relative tumor proliferation rate (T/C, %) was calculated using the formula: T/C %=TRTV/CRTV[…] (TRTV: mean RTV of the treatment group; CRTV: mean RTV of the negative control group). The relative tumor volume (RTV) was calculated based on the tumor measurement results, with the formula RTV=Vt/V0, where V0 is the tumor volume measured at the time of grouping administration (i.e., Day 1), and Vt is the tumor volume at a certain measurement time. TRTV and CRTV were derived from data on the same day.
The experimental data were calculated and subjected to relevant statistical processing using Microsoft Office Excel 2007 software. Unless otherwise specified, the data were expressed as mean±standard error (Mean±SE), and comparisons between groups were performed using t-tests.

[2] = Pharmacokinetic evaluation in mice; format: in vivo, C57BL/6 or C57 male mice
Excerpt: C57BL/6 or C57 male mice were selected as the test animals for this study. The LC/MS/MS method was employed to quantitatively determine the plasma drug concentrations at various time points after intravenous injection or intragastric administration of the test compound, aiming to evaluate the pharmacokinetic characteristics of the compound of the present disclosure in mice.
C57BL/6 or C57 mice (male, 20 to 30 g, 7 to 10 weeks old, Beijing Vital River).
A clear solution of the test compound was injected intravenously into the tail vein of C57BL/6 mice (fasted overnight) (vehicle: 10% DMSO/10% solutol/80% H2O), or administered intragastrically to C57 mice (fed). […] The mixture was thoroughly vortexed and mixed, and centrifuged at 6000 g for 3 minutes at 2 to 8° C. […] The mixture was thoroughly vortexed and mixed, and centrifuged at 6000 g for 3 minutes at 2 to 8° C. Plasma drug concentrations were determined by the LC-MS/MS method, and relevant pharmacokinetic parameters were calculated using Phoenix WinNonlin 8.2.0 pharmacokinetic software with non-compartmental model linear-log trapezoidal method.

SU-DHL-2 = experiment: Anti-proliferative effect in lymphoma cell line SU-DHL-2 (CellTiter-Glo); format: cell-based, human
Procedure: Objective: This experiment was conducted to detect the inhibitory effect of the compound of formula (I) on cell proliferation in the lymphoma cell line SU-DHL-2.
The tumor cell lines were cultured under the above culture conditions in an incubator at 37° C. and 5% CO2. The cells were passaged periodically, and those in the logarithmic growth phase were harvested for seeding.
• (1) The cells were stained with trypan blue, and the viable cells were counted. • (2) The cell concentration was adjusted to an appropriate concentration.
• (3) 50 μL of cell suspension was added to each well of the culture plate as shown in the figure above. • (4) The culture plate was incubated overnight in an incubator at 37° C., 5% CO2, and 100% relative humidity.
The drug was administered with an Echo655 instrument. A dosing volume of 50 nL was used, with a final DMSO concentration of 0.1%. The culture plate was centrifuged at 1000 rpm for 1 min and incubated at 37° C., 5% CO2, and 100% relative humidity for 4 days. […]

[3] = 10 mg/kg intragastric once daily
[4] = 30 mg/kg intragastric once daily
[5] = 100 mg/kg intragastric once daily
[6] = Intragastric administration (10 mg/kg) (fed)

O=C1CCC(c2noc3ccc4c(NC(=O)CN5CCN(C[C@H]6CC[C@H](n7cc(NC(=O)c8coc(-c9ccnc(NCC%10CC%10)c9)n8)c(C(F)F)n7)CC6)CC5)cccc4c23)C(=O)N1 (some centres unmarked) [Hydrochloride of Compound of Formula (I)]
T/C (Day 22) [1, 3]: 58%
TGI (Day 22) [1, 3]: 49%
Tumor Volume (Day 0) [1, 3]: 161 ± 12 mm^3
Tumor Volume (Day 22) [1, 3]: 714 ± 153 mm^3
T/C (Day 22) [1, 4]: 34%
TGI (Day 22) [1, 4]: 75%
Tumor Volume (Day 0) [1, 4]: 160 ± 9 mm^3
Tumor Volume (Day 22) [1, 4]: 430 ± 98 mm^3
T/C (Day 22) [1, 5]: 23%
TGI (Day 22) [1, 5]: 88%
Tumor Volume (Day 0) [1, 5]: 160 ± 8 mm^3
Tumor Volume (Day 22) [1, 5]: 291 ± 70 mm^3
Area Under the Drug-Time Curve (0-inf) [2, 6]: 4.47 µM·h
Peak Concentration [2, 6]: 0.54 µM
Time to Peak Concentration [2, 6]: 1.00 h
Area Under the Drug-Time Curve (0-inf) ([2]; Intravenous Injection (2 mg/kg) (fasted)): 5.40 µM·h
inhibitory effect on cell proliferation (conclusion) (SU-DHL-2): excellent inhibitory effect
